# Read-outs that look alike come from different tables or passages of the source.
# Legend:
# Atf2p = biological target: T1, Atf2p (Saccharomyces cerevisiae, UniProt P53296); details: cited from earlier work
# T1 sequence (P53296 1-535): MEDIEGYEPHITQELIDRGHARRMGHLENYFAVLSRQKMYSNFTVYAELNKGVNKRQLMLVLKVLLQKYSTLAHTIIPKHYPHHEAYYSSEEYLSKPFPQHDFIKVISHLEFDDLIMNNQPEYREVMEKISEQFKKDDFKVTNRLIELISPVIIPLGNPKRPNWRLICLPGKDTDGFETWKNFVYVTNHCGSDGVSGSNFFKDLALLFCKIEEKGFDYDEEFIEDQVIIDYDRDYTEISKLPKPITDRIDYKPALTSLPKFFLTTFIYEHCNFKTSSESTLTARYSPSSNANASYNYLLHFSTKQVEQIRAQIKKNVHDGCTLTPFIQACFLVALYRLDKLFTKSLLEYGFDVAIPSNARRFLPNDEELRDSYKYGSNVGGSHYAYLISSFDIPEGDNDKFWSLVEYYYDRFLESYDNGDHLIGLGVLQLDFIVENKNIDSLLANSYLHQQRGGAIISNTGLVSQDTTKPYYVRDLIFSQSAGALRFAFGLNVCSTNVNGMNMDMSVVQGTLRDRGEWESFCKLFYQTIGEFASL
# YRC1001/pRC124 = assay: Bioconversion of alcohols added to malt medium by a strain overexpressing ATF2; assay type: cell-based, Saccharomyces cerevisiae
# Method: Transformation dans la souche […], sous contrôle du promoteur proTEF1, le gène ATF2 (pRC124). Les précultures sont réalisées dans du milieu liquide SC20 (Sherman, 1991) dépourvu d'uracile et selon la même procédure que dans l'exemple 3. Les cultures sont ensemencées comme décrit précédemment dans du milieu malt, cette fois non glucosé. Ce dernier est supplémenté en leucine, lysine et histidine. A ce milieu malt, on ajoute juste avant ensemencement des alcools à raison de 100 μg/ml. Après fermentation pendant 98 heures, on analyse -comme décrit précédemment- les alcools et leurs produits dérivés (esters […] correspondant à l'alcool et son ester éthylé). La capacité de bioconversion est ensuite exprimée par le rapport « ester acétylé de l'alcool ajouté »/« somme des alcools et produits dérivés ». Cette valeur donne une indication […] au milieu extérieur par la souche de levure transformée. Les résultats sont […] Tableau 4.
# [1] = system: alcool acétyle transférase; details: partially purified enzyme, cited from earlier work
# production d'esters = details: six mois après la mise en bouteille; cited from earlier work
# [2] = alcohol added at 100 µg/ml, malt non glucosé, 98 heures, ratio ester acétylé de l'alcool ajouté / somme des alcools et produits dérivés
smiles,measurement,setting,value
CC(=O)[C@H]1CC[C@H]2[C@@H]3CC=C4C[C@@H](O)CC[C@]4(C)[C@H]3CC[C@]12C [pregnénolone],Km,Atf2p,0.5 µM
CC(C)CCO [isoamylalcool],Bioconversion par YRC1001/pRC124,YRC1001/pRC124; [2],"0,045"
same,Km,[1]; acceptor,25000 µM
OCc1ccccc1 [benzylalcool],Bioconversion par YRC1001/pRC124,YRC1001/pRC124; [2],"0,163"
CCCCO [n-butanol],Bioconversion par YRC1001/pRC124,YRC1001/pRC124,"0,021"
CC(=O)SCCNC(=O)CCNC(=O)[C@H](O)C(C)(C)COP(=O)(O)OP(=O)(O)OC[C@H]1O[C@@H](n2cnc3c(N)ncnc32)[C@H](O)[C@@H]1OP(=O)(O)O [acétyle-CoA],Km,Atf2p,1 µM
same,Km,[1]; co-factor,25 to 40 µM
CC(=O)OCCc1ccccc1 [acétatede 2-phényléthyle],réduction des esters acétylés,production d'esters,~2 fois
CC(=O)OCCC(C)C [acétate d'isoamyle],réduction des esters acétylés,production d'esters,~2 fois

# From patent EP1308501A1, “Fermented beverages comprising yeast transformed by the ATF2 gene” (Pernod-Ricard, priority 2001, dated 2003)
